Laboratory results published in ChEMBL document CHEMBL1125405, “Synthesis of alkoxy-substituted diaryl compounds and correlation of ring separation with inhibition of tubulin polymerization: differential enhancement of inhibitory effects under suboptimal polymerization reaction conditions” (J Med Chem, 1992).

Legend:
HL-60 = assay: Cytotoxicity of compound against HL-60 human leukemia cells; assay type: functional, cell-based
L1210 [1] = assay: Compound was tested for the inhibition of murine L1210 leukemia cells growth by 50%; assay type: functional, cell-based; conditions: Mus musculus
Tubulin [2] = target: T1, Tubulin (Bos taurus, UniProt Q6B856+Q862L2+Q862F3); assay: Inhibition of glutamate-dependent tubulin polymerization at 30 degrees C(0.25 mM MgCl2); assay type: functional
Tubulin [3] = target: T1, Tubulin; assay: Concentration required to inhibit the extent of glutamate-dependent tubulin polymerization by 50% at 37 degrees C(1.0 mM MgCl2); assay type: functional
L1210 [4] = assay: Compound was tested for the inhibition of L1210 leukemia cells growth […]; assay type: functional, cell-based; conditions: Mus musculus

| SMILES | IC50 (Tubulin [2]) | IC50 (Tubulin [3]) | further results |
| --- | --- | --- | --- |
| COc1ccc(Cc2cc(OC)c(OC)c(OC)c2)cc1O | 2300 nM | 7700 nM | IC50 (HL-60): 100 nM; IC50 (L1210 [1]): 200 nM |
| COc1ccc(CCCCc2cc(OC)c(OC)c(OC)c2)cc1O | 4400 nM | 30000 nM |  |
| COc1ccc(CCCc2cc(OC)c(OC)c(OC)c2)cc1O | 3000 nM | 11000 nM | IC50 (HL-60): 300 nM; IC50 (L1210 [1]): 400 nM |
| COc1ccc(-c2cc(OC)c(OC)c(OC)c2)cc1O | > 40000 nM | > 40000 nM |  |
| COc1c(-c2ccc(OC)c(=O)cc2)ccc(C=O)c1C=O | 1200 nM | 2600 nM |  |
| COc1ccc(CCc2cc(OC)c(OC)c(OC)c2)cc1O | 1600 nM | 3500 nM | IC50 (HL-60): 50 nM; IC50 (L1210 [4]): 70 nM |
| COc1ccc(/C=C/Cc2cc3c(cc2OC)OCO3)cc1 | 3900 nM |  |  |
| CCOc1cc2c(cc1/C=C\c1ccc(OC)cc1)OCO2 | > 40000 nM |  |  |
| COc1ccc(C(C)c2cc3c(cc2OC)OCO3)cc1 (stereo not given) | 2500 nM |  |  |

Continued, in another order:

| IC50 (Tubulin [2]) | IC50 (Tubulin [3]) | SMILES | further results |
| --- | --- | --- | --- |
| 1800 nM |  | CCOc1cc2c(cc1C(C)c1ccc(OC)cc1)OCO2 (stereo not given) |  |
| 7500 nM |  | COc1ccc(CCCCc2cc3c(cc2OC)OCO3)cc1 |  |
| 5400 nM |  | COc1ccc(Cc2cc3c(cc2OC)OCO3)cc1 |  |
| 1900 nM |  | CCOc1cc2c(cc1C/C=C/c1ccc(OC)cc1)OCO2 |  |
| 3800 nM |  | COc1ccc(CCCc2cc3c(cc2OC)OCO3)cc1 |  |
| 8800 nM |  | COc1ccc(CCc2cc3c(cc2OC)OCO3)cc1 |  |
| 3800 nM |  | CCOc1cc2c(cc1CCc1ccc(OC)cc1)OCO2 |  |
| 2000 nM |  | CCOc1cc2c(cc1Cc1ccc(OC)cc1)OCO2 |  |
| 2700 nM |  | CCOc1cc2c(cc1CCCc1ccc(OC)cc1)OCO2 |  |
